Non-standard residues stand in square brackets, D forms with d. Residues, ends and D or L forms follow the SMILES beside them. *: point of attachment. X2 = NC(=O)OCCOCCOCCOCCOCCOCCOCCOCCOCCOCCOCCN*; X1 = NCCOCCOCCOCCOCCOCCOCCOCCOCCOCCOCCOC(=O)*; Hexanoyl = CCCCCC(=O)*; Ahx = NCCCCCC(=O)O
System: S. aureus JAR
Assay type: cell-based
Conditions: JAR, 2 h
Description: S. aureus JAR is described in Campoccia et al. (Int. J. Artif. Organs, 2008 September; 31(9):841-7).
For the in vitro killing assay with P10 variants, S. aureus JAR ([…] CFU/ml) were incubated for 2 hours at 37° C. with various concentrations of the peptides in PBS or in PBS/human plasma (1/1, v/v). […] The LC99.9 is the average value of two independent experiments.

Row | Structure (SMILES) | LC99.9 (μM) (50% plasma) | LC99.9 (μM) (PBS)
1 | CC[C@H](C)[C@H](NC(=O)[C@H](CCCCN)NC(=O)[C@H](CCCCN)NC(=O)[C@H](Cc1ccc(O)cc1)NC(=O)[C@H](CCC(=O)O)NC(=O)[C@H](CCCNC(=N)N)NC(=O)[C@H](C)NC(=O)[C@H](CC(C)C)NC(C)=O)C(=O)N[C@H](C(=O)N[C@@H](CCC(=O)O)C(=O)N[C@@H](CCCCN)C(=O)N[C@@H](CC(C)C)C(=O)N[C@@H](CCCCN)C(=O)N[C@@H](CCCNC(=N)N)C(=O)N[C@@H](Cc1c[nH]c2ccccc12)C(=O)N[C@@H](CC(C)C)C(=O)N[C@@H](CCCNC(=N)N)C(=O)N[C@@H](CCC(N)=O)C(=O)N[C@H](C(=O)N[C@@H](CC(C)C)C(=O)N[C@@H](CCCNC(=N)N)C(=O)N[C@H](C(=O)N[C@H](CC(C)C)C(=O)N[C@@H](CCCNC(=N)N)C(N)=O)[C@@H](C)O)C(C)C)C(C)C [Peptide 1301-23, JLAREYKKIVEKLKRWLRQVLRTlRB] (Ac-LAREYKKIVEKLKRWLRQVLRT[dL]R-NH2) | 32.0 µM | 0.4 µM
2 | CC[C@H](C)[C@H](NC(=O)[C@H](CCCCN)NC(=O)[C@H](CCCCN)NC(=O)[C@H](Cc1ccc(O)cc1)NC(=O)[C@H](CCC(=O)O)NC(=O)[C@H](CCCNC(=N)N)NC(=O)[C@H](C)NC(=O)[C@H](CC(C)C)NC(C)=O)C(=O)N[C@H](C(=O)N[C@@H](CCC(=O)O)C(=O)N[C@@H](CCCCN)C(=O)N[C@@H](CC(C)C)C(=O)N[C@@H](CCCCN)C(=O)N[C@@H](CCCNC(=N)N)C(=O)N[C@@H](Cc1c[nH]c2ccccc12)C(=O)N[C@@H](CC(C)C)C(=O)N[C@@H](CCCNC(=N)N)C(=O)N[C@@H](CCC(N)=O)C(=O)N[C@H](C(=O)N[C@@H](CC(C)C)C(=O)N[C@@H](CCCNC(=N)N)C(=O)N[C@H](C(=O)N[C@@H](CC(C)C)C(=O)N[C@H](CCCNC(=N)N)C(N)=O)[C@@H](C)O)C(C)C)C(C)C [Peptide 1301-24, JLAREYKKIVEKLKRWLRQVLRTLrB] (Ac-LAREYKKIVEKLKRWLRQVLRTL[dR]-NH2) | 19.2 µM | 0.6 µM
3 | CC[C@H](C)[C@H](NC(=O)[C@H](CCCCN)NC(=O)[C@H](CCCCN)NC(=O)[C@H](Cc1ccc(O)cc1)NC(=O)[C@H](CCC(=O)O)NC(=O)[C@H](CCCNC(=N)N)NC(=O)[C@H](C)NC(=O)[C@H](CC(C)C)NC(C)=O)C(=O)N[C@H](C(=O)N[C@@H](CCC(=O)O)C(=O)N[C@@H](CCCCN)C(=O)N[C@@H](CC(C)C)C(=O)N[C@@H](CCCCN)C(=O)N[C@@H](CCCNC(=N)N)C(=O)N[C@@H](Cc1c[nH]c2ccccc12)C(=O)N[C@@H](CC(C)C)C(=O)N[C@@H](CCCNC(=N)N)C(=O)N[C@@H](CCC(N)=O)C(=O)N[C@H](C(=O)N[C@@H](CC(C)C)C(=O)N[C@@H](CCCNC(=N)N)C(=O)N[C@H](C(=O)N[C@@H](CC(C)C)C(=O)N[C@@H](CCCNC(=N)N)C(=O)NCCCCCC(=O)NCCCCCC(N)=O)[C@@H](C)O)C(C)C)C(C)C [Peptide 1302-4, JLAREYKKIVEKLKRWLRQVLRTLRZZB] (Ac-LAREYKKIVEKLKRWLRQVLRTLR[Ahx][Ahx]-NH2) | 38.4 µM | 0.8 µM
4 | CC[C@H](C)[C@H](NC(=O)[C@H](CCCCN)NC(=O)[C@H](CCCCN)NC(=O)[C@H](Cc1ccc(O)cc1)NC(=O)[C@H](CCC(=O)O)NC(=O)[C@H](CCCNC(=N)N)NC(=O)[C@H](C)NC(=O)[C@H](CC(C)C)NC(C)=O)C(=O)N[C@H](C(=O)N[C@@H](CCC(=O)O)C(=O)N[C@@H](CCCCN)C(=O)N[C@@H](CC(C)C)C(=O)N[C@@H](CCCCN)C(=O)N[C@@H](CCCNC(=N)N)C(=O)N[C@@H](Cc1c[nH]c2ccccc12)C(=O)N[C@@H](CC(C)C)C(=O)N[C@@H](CCCNC(=N)N)C(=O)N[C@@H](CCC(N)=O)C(=O)N[C@H](C(=O)N[C@@H](CC(C)C)C(=O)N[C@@H](CCCNC(=N)N)C(=O)N[C@H](C(=O)N[C@@H](CC(C)C)C(=O)N[C@@H](CCCNC(=N)N)C(=O)NCCOCCOCCOCCOCCOCCOCCOCCOCCOCCOCCOC(N)=O)[C@@H](C)O)C(C)C)C(C)C [Peptide 1302-5, JLAREYKKIVEKLKRWLRQVLRTLRoB] (Ac-LAREYKKIVEKLKRWLRQVLRTLR-X2) | 102.4 µM | 0.8 µM
5 | CC[C@H](C)[C@H](NC(=O)[C@H](CCCCN)NC(=O)[C@H](CCCCN)NC(=O)[C@H](Cc1ccc(O)cc1)NC(=O)[C@H](CCC(=O)O)NC(=O)[C@H](CCCNC(=N)N)NC(=O)[C@H](C)NC(=O)[C@H](CC(C)C)NC(C)=O)C(=O)N[C@H](C(=O)N[C@@H](CCC(=O)O)C(=O)N[C@@H](CCCCN)C(=O)N[C@@H](CC(C)C)C(=O)N[C@@H](CCCCN)C(=O)N[C@@H](CCCNC(=N)N)C(=O)N[C@@H](Cc1c[nH]c2ccccc12)C(=O)N[C@@H](CC(C)C)C(=O)N[C@@H](CCCNC(=N)N)C(=O)N[C@@H](CCC(N)=O)C(=O)N[C@H](C(=O)N[C@@H](CC(C)C)C(=O)N[C@@H](CCCNC(=N)N)C(=O)N[C@H](C(=O)N[C@@H](CC(C)C)C(=O)N[C@@H](CCCNC(=N)N)C(=O)NCCCCCC(N)=O)[C@@H](C)O)C(C)C)C(C)C [Peptide 1302-6, JLAREYKKIVEKLKRWLRQVLRTLRZB] (Ac-LAREYKKIVEKLKRWLRQVLRTLR[Ahx]-NH2) | 38.4 µM | 0.6 µM
6 | CC[C@H](C)[C@H](NC(=O)[C@H](CCCCN)NC(=O)[C@H](CCCCN)NC(=O)[C@H](Cc1ccc(O)cc1)NC(=O)[C@H](CCC(=O)O)NC(=O)[C@H](CCCNC(=N)N)NC(=O)[C@H](C)NC(=O)[C@H](CC(C)C)NC(=O)OCCOCCOCCOCCOCCOCCOCCOCCOCCOCCOCCN)C(=O)N[C@H](C(=O)N[C@@H](CCC(=O)O)C(=O)N[C@@H](CCCCN)C(=O)N[C@@H](CC(C)C)C(=O)N[C@@H](CCCCN)C(=O)N[C@@H](CCCNC(=N)N)C(=O)N[C@@H](Cc1c[nH]c2ccccc12)C(=O)N[C@@H](CC(C)C)C(=O)N[C@@H](CCCNC(=N)N)C(=O)N[C@@H](CCC(N)=O)C(=O)N[C@H](C(=O)N[C@@H](CC(C)C)C(=O)N[C@@H](CCCNC(=N)N)C(=O)N[C@H](C(=O)N[C@@H](CC(C)C)C(=O)N[C@@H](CCCNC(=N)N)C(N)=O)[C@@H](C)O)C(C)C)C(C)C [Peptide 1302-7, oLAREYKKIVEKLKRWLRQVLRTLRB] (X1-LAREYKKIVEKLKRWLRQVLRTLR-NH2; N-terminus assumed) | 102.4 µM | 1.6 µM
7 | CCCCCC(=O)N[C@@H](CC(C)C)C(=O)N[C@@H](C)C(=O)N[C@@H](CCCNC(=N)N)C(=O)N[C@@H](CCC(=O)O)C(=O)N[C@@H](Cc1ccc(O)cc1)C(=O)N[C@@H](CCCCN)C(=O)N[C@@H](CCCCN)C(=O)N[C@H](C(=O)N[C@H](C(=O)N[C@@H](CCC(=O)O)C(=O)N[C@@H](CCCCN)C(=O)N[C@@H](CC(C)C)C(=O)N[C@@H](CCCCN)C(=O)N[C@@H](CCCNC(=N)N)C(=O)N[C@@H](Cc1c[nH]c2ccccc12)C(=O)N[C@@H](CC(C)C)C(=O)N[C@@H](CCCNC(=N)N)C(=O)N[C@@H](CCC(N)=O)C(=O)N[C@H](C(=O)N[C@@H](CC(C)C)C(=O)N[C@@H](CCCNC(=N)N)C(=O)N[C@H](C(=O)N[C@@H](CC(C)C)C(=O)N[C@@H](CCCNC(=N)N)C(N)=O)[C@@H](C)O)C(C)C)C(C)C)[C@@H](C)CC [Peptide 1302-8, bLAREYKKIVEKLKRWLRQVLRTLRB] (Hexanoyl-LAREYKKIVEKLKRWLRQVLRTLR-NH2) | 102.4 µM | 1.2 µM

Source: patent US9562085B2, “Antimicrobial peptide” (priority 2013, dated 2017)
